Assay results: ChEMBL document CHEMBL1136440, “Design and synthesis of novel RXR-selective modulators with improved pharmacological profile” (Bioorg Med Chem Lett, 2003)

Columns and labels:
[1] = target: T1, Retinoic acid receptor RXR-alpha (Homo sapiens, UniProt P19793); test: In vitro antagonist activity against RXR alpha in CV-1 cells; format: functional, cell-based, Cercopithecidae
T1 sequence (P19793 whole entry): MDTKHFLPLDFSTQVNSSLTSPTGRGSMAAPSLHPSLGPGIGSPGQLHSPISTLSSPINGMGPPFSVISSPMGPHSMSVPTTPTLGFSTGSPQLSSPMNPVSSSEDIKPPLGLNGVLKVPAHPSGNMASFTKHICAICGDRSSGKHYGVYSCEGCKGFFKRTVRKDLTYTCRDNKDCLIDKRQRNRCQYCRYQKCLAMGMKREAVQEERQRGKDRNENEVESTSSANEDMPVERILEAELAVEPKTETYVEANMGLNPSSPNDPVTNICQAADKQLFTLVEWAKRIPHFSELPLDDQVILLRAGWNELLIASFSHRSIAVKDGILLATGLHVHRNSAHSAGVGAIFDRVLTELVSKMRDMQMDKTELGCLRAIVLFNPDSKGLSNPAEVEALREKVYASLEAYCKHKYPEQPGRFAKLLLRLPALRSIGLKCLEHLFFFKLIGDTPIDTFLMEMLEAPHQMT

[2] = target: T2, Retinoic acid receptor alpha (Homo sapiens) (UniProt P10276); test: Agonist synergy against RAR alpha was tested along with 3 nM TTNPB; format: functional; details: Cercopithecidae
T2 sequence (whole entry): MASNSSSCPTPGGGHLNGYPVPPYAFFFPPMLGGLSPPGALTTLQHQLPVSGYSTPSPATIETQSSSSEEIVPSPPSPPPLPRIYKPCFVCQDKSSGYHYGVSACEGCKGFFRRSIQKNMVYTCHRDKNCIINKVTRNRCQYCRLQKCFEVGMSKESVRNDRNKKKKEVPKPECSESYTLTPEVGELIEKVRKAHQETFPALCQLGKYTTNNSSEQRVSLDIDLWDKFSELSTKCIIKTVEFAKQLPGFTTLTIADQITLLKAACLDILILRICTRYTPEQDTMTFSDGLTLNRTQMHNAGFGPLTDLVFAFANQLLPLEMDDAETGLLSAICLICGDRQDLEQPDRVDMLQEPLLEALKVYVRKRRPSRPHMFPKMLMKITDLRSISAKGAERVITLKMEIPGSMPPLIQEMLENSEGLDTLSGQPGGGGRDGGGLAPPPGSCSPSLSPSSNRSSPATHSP

[3] = target: T3, Retinoic acid receptor beta (Homo sapiens, UniProt P10826); test: Binding affinity against RAR beta receptor using [3H]ATRA as radioligand in CV-1 cells; format: cell-based, Cercopithecidae
T3 sequence (P10826 whole entry): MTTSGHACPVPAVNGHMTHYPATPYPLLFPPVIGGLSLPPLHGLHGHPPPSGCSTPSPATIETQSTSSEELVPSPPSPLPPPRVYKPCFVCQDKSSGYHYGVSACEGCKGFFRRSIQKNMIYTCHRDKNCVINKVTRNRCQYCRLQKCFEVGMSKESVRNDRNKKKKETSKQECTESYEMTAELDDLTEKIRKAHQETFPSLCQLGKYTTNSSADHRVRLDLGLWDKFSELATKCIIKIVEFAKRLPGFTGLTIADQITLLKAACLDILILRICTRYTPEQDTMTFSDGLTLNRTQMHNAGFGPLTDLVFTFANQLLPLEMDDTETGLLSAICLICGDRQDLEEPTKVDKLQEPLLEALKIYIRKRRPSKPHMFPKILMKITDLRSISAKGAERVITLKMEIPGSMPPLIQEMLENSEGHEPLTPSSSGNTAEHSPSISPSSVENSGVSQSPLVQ

[4] = target: T4, Retinoic acid receptor RXR-beta (Homo sapiens, UniProt P28702); test: Displacement of [3H]9-cis-RA from RXR beta receptor in CV-1 cells; format: cell-based, Cercopithecidae
T4 sequence (P28702 whole entry): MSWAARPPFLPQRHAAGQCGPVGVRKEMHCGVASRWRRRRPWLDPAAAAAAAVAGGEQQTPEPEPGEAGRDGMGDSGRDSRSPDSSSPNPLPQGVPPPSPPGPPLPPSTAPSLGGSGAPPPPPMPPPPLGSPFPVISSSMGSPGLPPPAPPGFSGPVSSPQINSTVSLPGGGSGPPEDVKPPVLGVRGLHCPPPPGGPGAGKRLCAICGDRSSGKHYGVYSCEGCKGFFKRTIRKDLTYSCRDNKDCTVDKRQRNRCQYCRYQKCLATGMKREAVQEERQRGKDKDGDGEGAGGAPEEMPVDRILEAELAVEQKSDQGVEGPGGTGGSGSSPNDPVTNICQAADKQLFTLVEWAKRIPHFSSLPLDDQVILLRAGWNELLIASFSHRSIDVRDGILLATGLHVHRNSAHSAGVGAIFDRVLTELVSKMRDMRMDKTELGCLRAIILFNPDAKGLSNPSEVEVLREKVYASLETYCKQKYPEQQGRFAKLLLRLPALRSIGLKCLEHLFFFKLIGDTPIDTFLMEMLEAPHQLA

[5] = target: T5, Retinoic acid receptor alpha (Homo sapiens, UniProt P10276); test: Binding affinity against RAR alpha receptor using [3H]ATRA as radioligand in CV-1 cells; format: cell-based, Cercopithecidae
T5 sequence (P10276 whole entry): T2 sequence (whole entry)

[6] = target: T6, Retinoic acid receptor RXR-gamma (Homo sapiens, UniProt P48443); test: Binding affinity against RXR gamma receptor using [3H]9-cis-RA as radioligand in CV-1 cells; format: cell-based, Cercopithecidae
T6 sequence (P48443 whole entry): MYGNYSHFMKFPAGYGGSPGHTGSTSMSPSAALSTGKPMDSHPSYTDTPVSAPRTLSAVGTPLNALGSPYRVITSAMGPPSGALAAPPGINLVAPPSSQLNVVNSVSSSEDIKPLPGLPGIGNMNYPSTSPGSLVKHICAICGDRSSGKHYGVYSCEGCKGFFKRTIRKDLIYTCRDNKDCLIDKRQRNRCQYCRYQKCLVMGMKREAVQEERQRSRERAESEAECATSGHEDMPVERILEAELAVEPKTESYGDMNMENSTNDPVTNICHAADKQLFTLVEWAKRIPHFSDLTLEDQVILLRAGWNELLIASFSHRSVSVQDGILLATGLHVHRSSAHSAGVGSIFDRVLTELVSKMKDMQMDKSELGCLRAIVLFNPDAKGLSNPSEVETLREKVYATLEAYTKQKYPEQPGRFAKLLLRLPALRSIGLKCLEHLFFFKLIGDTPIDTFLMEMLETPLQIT

[7] = target: T7, Retinoic acid receptor gamma (Homo sapiens, UniProt P13631); test: Binding affinity against RAR gamma receptor using [3H]ATRA as radioligand in CV-1 cells; format: cell-based, Cercopithecidae
T7 sequence (P13631 whole entry): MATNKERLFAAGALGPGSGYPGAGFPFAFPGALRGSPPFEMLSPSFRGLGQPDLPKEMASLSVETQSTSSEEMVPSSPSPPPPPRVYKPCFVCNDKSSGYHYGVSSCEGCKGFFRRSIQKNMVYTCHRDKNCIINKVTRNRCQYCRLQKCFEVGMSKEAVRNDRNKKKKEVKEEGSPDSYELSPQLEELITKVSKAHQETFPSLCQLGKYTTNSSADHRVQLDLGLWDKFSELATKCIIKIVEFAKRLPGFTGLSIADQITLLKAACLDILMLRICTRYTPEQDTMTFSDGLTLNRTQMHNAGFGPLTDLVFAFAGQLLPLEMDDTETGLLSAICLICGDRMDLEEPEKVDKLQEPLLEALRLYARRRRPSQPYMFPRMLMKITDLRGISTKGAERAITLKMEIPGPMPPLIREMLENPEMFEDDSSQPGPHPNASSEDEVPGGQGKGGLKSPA

[8] = target: T8, Peroxisome proliferator-activated receptor gamma (Homo sapiens, UniProt P37231)
T8 sequence (P37231 whole entry): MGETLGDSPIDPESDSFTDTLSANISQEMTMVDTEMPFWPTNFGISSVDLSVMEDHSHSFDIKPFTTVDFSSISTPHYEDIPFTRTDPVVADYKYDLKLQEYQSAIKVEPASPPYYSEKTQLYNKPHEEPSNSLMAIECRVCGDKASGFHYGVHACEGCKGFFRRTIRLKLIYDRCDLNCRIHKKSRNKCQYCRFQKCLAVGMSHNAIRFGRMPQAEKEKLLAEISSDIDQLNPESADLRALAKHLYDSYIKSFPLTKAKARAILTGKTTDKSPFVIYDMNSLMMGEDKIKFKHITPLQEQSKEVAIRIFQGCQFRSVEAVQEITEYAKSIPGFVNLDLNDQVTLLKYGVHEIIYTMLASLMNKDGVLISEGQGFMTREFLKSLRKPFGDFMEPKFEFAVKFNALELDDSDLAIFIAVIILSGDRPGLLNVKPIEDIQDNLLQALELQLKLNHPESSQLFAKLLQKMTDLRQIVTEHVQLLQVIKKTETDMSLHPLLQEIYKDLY
Description: In vitro agonistic activity against PPAR gamma along with 100 nM BRL-49653

[9] = target: T8, Peroxisome proliferator-activated receptor gamma; remark: listed apart in the source
Description: In vitro agonist efficacy against PPAR gamma along with 100 nM BRL-49653

[10] = target: T1, Retinoic acid receptor RXR-alpha; test: biochemical
Description: Binding affinity against RXR alpha receptor using [3H]9-cis-RA as radioligand in CV-1 cells

SMILES | IC50 [1] [nM] | Synergy [2] [nM] | Ki [3] [nM] | Ki [4] [nM] | Ki [5] [nM] | Ki [6] [nM] | Ki [7] [nM] | EC50 [8] [nM] | EC50 [9] [nM] | Ki [10] [nM]
C/C(=C/C=C/C(C)=C/C(=O)O)c1cc(-c2cc(F)cc(F)c2)cc(C(C)C)c1OCC(F)F | 4.6 | 0.8 | 1960 | 2.4 | > 10000 | 2.8 | > 10000 | 2.7 | 40 | 2.6
C/C(=C/C=C/C(C)=C/C(=O)O)c1cc(-c2cccc(F)c2)cc(C(C)C)c1OCC(F)F | 3.9 | 1.6 | 3600 | 7.4 | > 10000 | 2.9 | > 10000 | 0.8 | 36 | 1
CCCOc1c(\C(C)=C/C=C/C(C)=C/C(=O)O)cc(C(F)(F)C(F)(F)F)cc1C(C)C | 5.1 | 1.4 | 1980 | 17.2 | 2500 | 27.6 | > 1000 | 2.7 | 59 | 25.6
C/C(=C/C=C/C(C)=C/C(=O)O)c1cc(-c2ccc(F)cc2)cc(C(C)C)c1OCC(F)F | 2.2 | 1.1 | 2110 | 3.9 | 4550 | 5.6 | > 10000 | 1.3 | 32 | 0.8
CCCCOc1c(\C(C)=C(F)/C=C/C(C)=C/C(=O)O)cc(C(C)C)cc1C(C)C | 4.7 | 1.5 | 4620 | 24.4 | 3730 | 27.8 | > 10000 | 4.1 | 47 | 4.4
CC(/C=C/C(F)=C(/C)c1cc(C(C)(C)C)cc(C(C)(C)C)c1OCC(F)(F)F)=C\C(=O)O | 7.2 | 1.5 | 6010 | 15.5 | 4660 | 12.4 | > 10000 | 12.2 | 30 | 4.1
Cc1cc2c(cc1C1(c3ccc(C(=O)O)cn3)CC1)C(C)(C)CCC2(C)C |  | 6.9 |  | 75 |  | 12 |  |  |  | 
CCCCOc1c(\C(C)=C/C=C/C(C)=C/C(=O)O)cc(C(F)(F)C(F)(F)F)cc1C(C)C | 4 | 1.2 | 2270 | 8.2 | 2750 | 45.7 | > 10000 | 7.4 | 71 | 21.4
C/C(=C/C=C/C(C)=C/C(=O)O)c1cc(C(C)C)cc(-c2ccccc2)c1OCC(F)F | 57.9 | 1 | 2610 | 12.3 | 4660 | 22.5 | > 10000 | 16.3 | 78 | 6.1
CC(/C=C/[C@@H]1C[C@]1(C)c1ccc2c(c1)C(C)(C)CCC2(C)C)=C\C(=O)O [IRX-4204] |  | 1.9 |  |  |  |  |  | 8.6 | 54 | 
